Usually IC50 stands for the concentration that gives 50% inhibition.

The target of this experiment is T1, Recombinant human HSD17B13 enzyme (Homo sapiens, UniProt Q7Z5P4).
T1 sequence (Q7Z5P4 20-300): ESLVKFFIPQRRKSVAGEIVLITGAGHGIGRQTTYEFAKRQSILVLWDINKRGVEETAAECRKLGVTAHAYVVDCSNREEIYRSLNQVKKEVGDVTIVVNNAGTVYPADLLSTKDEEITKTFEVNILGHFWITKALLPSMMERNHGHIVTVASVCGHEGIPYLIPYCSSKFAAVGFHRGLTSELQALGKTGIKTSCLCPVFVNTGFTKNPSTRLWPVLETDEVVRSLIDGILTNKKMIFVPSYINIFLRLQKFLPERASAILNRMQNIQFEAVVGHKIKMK
As to the kind of experiment: HSD17b13 NAD(P)H-Glo biochemical assay. The conditions noted are these: 50 μM estradiol, 1 mM NAD+, 37° C. for 3 hours; read-out: HSD17β13 IC50. Here is the method:
Example B-1: HSD17b13 NAD (P) H-Glo Biochemical Assay
Recombinant human HSD17B13 enzyme. Substrate: estradiol (Sigma β-Estradiol E8875), 100 mM in DMSO. Cofactor: NAD+ Grade I free acid (Sigma 10127965001), 20 mM in H2O. Assay buffer final concentration: 20 mM Tris pH7.4 with 0.002% Tween-20 and 0.02% BSA. Assay performed in 384 well solid bottom plate (Corning 3570). Enzymatic activity detected by NAD (P) H-Glo™ Detection System (Promega G9062).
Inhibitor compounds were serially diluted in DMSO and then further diluted in assay buffer to a 10× concentration consisting of 1% DMSO.
HSD17b13 enzyme was diluted in 1× assay buffer to the desired enzyme concentration based on the specific activity of the enzyme lot. 20 μL of diluted enzyme was added to each well along with 2.5 μL of 10× inhibitor solution. Assay plate was incubated at RT for 20 minutes, and then 2.5 μL of a 10× substrate/cofactor mix was added to each well for a final concentration of 50 μM estradiol and 1 mM NAD+. Assay plate was incubated at 37° C. for 3 hours. NAD (P) H-Glo™ Detection System reagents were prepared according to manufacturer's specifications, and 25 μL was added to each well. After incubating for 1 hour at RT, luminescence was measured.
Turning to `CC1(Cc2ccccc2)CCN(c2ccc(-n3nnc4cc(F)c(O)c(F)c43)cc2)CC1` [Compound 1.10, 1-(4-(4-Benzyl-4-methylpiperidin-1-yl)phenyl)-5,7-difluoro-1H-benzo[d][1,2,3]triazol-6-ol], the IC50 is not above 100 nM.

As for `Cn1nc(-c2cc(C(F)(F)F)c(F)c(O)c2F)c2cnc(N3CC[C@H]3Cc3ccccc3)nc21` (single isomer, unassigned) [Compound 15.10], the IC50 was not above 100 nM.

For `Cn1nc(-c2cc(C(F)(F)F)c(F)c(O)c2F)c2cnc(N3CCOC[C@H]3Cc3cccc(F)c3)nc21` [Compound 5.24, (R)-2,6-Difluoro-3-(6-(3-(3-fluorobenzyl)morpholino)-1-methyl-1H-pyrazolo[3,4-d]pyrimidin-3-yl)-5-(trifluoromethyl)phenol], the IC50 is not above 100 nM.

With `COc1ccc(C[C@@H]2COCCN2c2ncc3c(-c4cc(C(F)(F)F)c(F)c(O)c4F)nn(C)c3n2)cc1` [Compound 5.28, (R)-2,6-Difluoro-3-(6-(3-(4-methoxybenzyl)morpholino)-1-methyl-1H-pyrazolo[3,4-d]pyrimidin-3-yl)-5-(trifluoromethyl)phenol], the IC50 was not above 100 nM.

`CNC(=O)N1CCN(c2ncc3c(-c4cc(C(F)(F)F)c(F)c(O)c4F)nn(C)c3n2)C[C@@H]1Cc1ccccc1` [Compound 6.06, (S)-2-Benzyl-4-(3-(2,4-difluoro-3-hydroxy-5-(trifluoromethyl)phenyl)-1-methyl-1H-pyrazolo[3,4-d]pyrimidin-6-yl)-N-methylpiperazine-1-carboxamide]: the half-inhibitory concentration (IC50) was not above 100 nM.

For `CN(C)C(=O)N1CCN(c2ncc3c(-c4cc(C(F)(F)F)c(F)c(O)c4F)nn(C)c3n2)C[C@@H]1Cc1ccccc1` [Compound 6.07, (S)-2-Benzyl-4-(3-(2,4-difluoro-3-hydroxy-5-(trifluoromethyl)phenyl)-1-methyl-1H-pyrazolo[3,4-d]pyrimidin-6-yl)-N,N-dimethylpiperazine-1-carboxamide], the IC50 was 100 to 1000 nM.

As to `Cn1nc(-c2cc(C(F)(F)F)c(F)c(O)c2F)c2cnc(N3CCN(S(C)(=O)=O)C[C@H]3CC3CCCCC3)nc21` [Compound 15.02, (R)-3-(6-(2-(Cyclohexylmethyl)-4-(methylsulfonyl)piperazin-1-yl)-1-methyl-1H-pyrazolo[3,4-d]pyrimidin-3-yl)-2,6-difluoro-5-(trifluoromethyl)phenol], the IC50 was not above 100 nM.

As to `Cn1nc(-c2cc(C(F)(F)F)c(F)c(O)c2F)c2cnc(N3CCOC[C@H]3CC3CCCCC3)nc21` (single isomer, unassigned) [Compound 15.04], the IC50 is not above 100 nM.

Regarding `Cn1nc(-c2cc(C(F)(F)F)c(F)c(O)c2F)c2cnc(N3CC[C@@H]3Cc3ccccc3)nc21` [Compound 15.11, (S)-3-(6-(2-Benzylazetidin-1-yl)-1-methyl-1H-pyrazolo[3,4-d]pyrimidin-3-yl)-2,6-difluoro-5-(trifluoromethyl)phenol], the IC50 was not above 100 nM.

On to `Cc1nn(-c2cc(C(F)(F)F)c(F)c(O)c2F)c2cc(F)c(N3CCN(S(C)(=O)=O)C[C@H]3Cc3ccccc3)nc12` [Compound 2.33, (R)-3-(5-(2-Benzyl-4-(methylsulfonyl)piperazin-1-yl)-6-fluoro-3-methyl-1H-pyrazolo[4,3-b]pyridin-1-yl)-2,6-difluoro-5-(trifluoromethyl)phenol], for which the 50% inhibitory concentration (IC50) was not above 100 nM.

In the case of `CS(=O)(=O)N1CCN(c2cc3c(N)nn(-c4cc(C(F)(F)F)c(F)c(O)c4F)c3cn2)[C@H](Cc2ccccc2)C1` [Compound 2.23, (R)-3-(3-Amino-5-(2-benzyl-4-(methylsulfonyl)piperazin-1-l)-1H-pyrazolo[3,4-c]pyridin-1-yl)-2,6-difluoro-5-(trifluoromethyl)phenol], the IC50 is not above 100 nM.

As to `Cn1nc(-c2cc(C(F)(F)F)c(F)c(O)c2F)c2cnc(N3CCO[C@@H](Cc4ccccc4)C3)nc21` [Compound 12, (S)-3-(6-(2-Benzylmorpholino)-1-methyl-1H-pyrazolo[3,4-d]pyrimidin-3-yl)-2,6-difluoro-5-(trifluoromethyl)phenol], the IC50 was not above 100 nM.

Turning to `Cn1nc(-c2cc(C(F)(F)F)c(F)c(O)c2F)c2cnc(N3CCC[C@@H]3Cc3ccccc3)nc21` [Compound 5.30, (R)-3-(6-(2-Benzylpyrrolidin-1-yl)-1-methyl-1H-pyrazolo[3,4-d]pyrimidin-3-yl)-2,6-difluoro-5-(trifluoromethyl)phenol], the 50% inhibitory concentration (IC50) was not above 100 nM.

Turning to `Oc1c(F)c(-c2n[nH]c3nc(N4CCOC[C@H]4Cc4ccccc4)ncc23)cc(C(F)(F)F)c1F` [Compound 5.20, (R)-3-(6-(3-Benzylmorpholino)-1H-pyrazolo[3,4-d]pyrimidin-3-yl)-2,6-difluoro-5-(trifluoromethyl)phenol], the half-inhibitory concentration (IC50) is not above 100 nM.

Take `Cn1nc(-c2cc(C(F)(F)F)c(F)c(O)c2F)c2cnc(N3CCO[C@@H](Cc4cccc(S(N)(=O)=O)c4)C3)nc21` [Compound 12.06, (S)-3-((4-(3-(2,4-Difluoro-3-hydroxy-5-(trifluoromethyl)phenyl)-1-methyl-1H-pyrazolo[3,4-d]pyrimidin-6-yl)morpholin-2-yl)methyl)benzenesulfonamide]: the half-inhibitory concentration (IC50) was not above 100 nM.

`Cc1nn(-c2ccc(Cl)c(O)c2F)c2cnc(N3CCN(S(C)(=O)=O)C[C@H]3Cc3ccccc3)cc12` [Compound 2.16, (R)-3-(5-(2-Benzyl-4-(methylsulfonyl)piperazin-1-yl)-3-methyl-1H-pyrazolo[3,4-c]pyridin-1-yl)-6-chloro-2-fluorophenol]: the half-maximal inhibitory concentration (IC50) was not above 100 nM.

`Cc1nn(-c2cc(C(F)(F)F)cc(O)c2F)c2cnc(N3CCOC(Cc4ccccc4)C3)cc12` (centres unmarked) [Compound 2.05, 3-(5-(2-Benzylmorpholino)-3-methyl-1H-pyrazolo[3,4-c]pyridin-1-yl)-2-fluoro-5-(trifluoromethyl)phenol]: the IC50 was in the range of 100 to 1000 nM.

As to `CNc1nn(-c2cc(C(F)(F)F)c(F)c(O)c2F)c2ccc(N3CCN(S(C)(=O)=O)C[C@H]3Cc3ccccc3)cc12` [Compound 2.14, (R)-3-(5-(2-Benzyl-4-(methylsulfonyl)piperazin-1-yl)-3-(methylamino)-1H-indazol-1-yl)-2,6-difluoro-5-(trifluoromethyl)phenol], the IC50 is not above 100 nM.

On to `Cc1nn(-c2cc(C(F)(F)F)c(F)c(O)c2F)c2cnc(N3CCN(S(C)(=O)=O)[C@H](Cc4ccccc4)C3)cc12` [Compound 2.07, (R)-3-(5-(3-Benzyl-4-(methylsulfonyl)piperazin-1-yl)-3-methyl-1H-pyrazolo[3,4-c]pyridin-1-yl)-2,6-difluoro-5-(trifluoromethyl)phenol], for which the IC50 was not above 100 nM.

With `Cn1nc(-c2cc(C(F)(F)F)c(F)c(O)c2F)c2cnc(NC3(Cc4ccccc4)CCC3)nc21` [Compound 5.27, 3-(6-((1-Benzylcyclobutyl)amino)-1-methyl-1H-pyrazolo[3,4-d]pyrimidin-3-yl)-2,6-difluoro-5-(trifluoromethyl)phenol], the IC50 was not above 100 nM.

Take `Cc1nn(-c2ccc(F)c(O)c2F)c2cnc(N3CCN(S(C)(=O)=O)C[C@H]3Cc3ccccc3)cc12` [Compound 2.15, (R)-3-(5-(2-Benzyl-4-(methylsulfonyl)piperazin-1-yl)-3-methyl-1H-pyrazolo[3,4-c]pyridin-1-yl)-2,6-difluorophenol]: the concentration for half-maximal inhibition (IC50) is not above 100 nM.

As to `Cn1nc(-c2cc(C(F)(F)F)c(F)c(O)c2F)c2cnc(N3CCC(O)(Cn4cccn4)CC3)nc21` [Compound 5.04, 4-((1H-Pyrazol-1-yl)methyl)-1-(3-(2,4-difluoro-3-hydroxy-5-(trifluoromethyl)phenyl)-1-methyl-1H-pyrazolo[3,4-d]pyrimidin-6-yl)piperidin-4-ol], the IC50 was not above 100 nM.

`CS(=O)(=O)N1CCN(c2ncc3c(-c4cc(C(F)(F)F)c(F)c(O)c4F)n[nH]c3n2)C[C@@H]1Cc1ccccc1` [Compound 5.22, (S)-3-(6-(3-Benzyl-4-(methylsulfonyl)piperazin-1-yl)-1H-pyrazolo[3,4-d]pyrimidin-3-yl)-2,6-difluoro-5-(trifluoromethyl)phenol]: the half-inhibitory concentration (IC50) is not above 100 nM.

On to `Cn1nc(-c2cc(C(F)(F)F)c(F)c(O)c2F)c2cnc(N3CCOCC3CC3CC3)nc21` (centres unmarked) [Compound 5.01, 3-(6-(3-(Cyclopropylmethyl)morpholino)-1-methyl-1H-pyrazolo[3,4-d]pyrimidin-3-yl)-2,6-difluoro-5-(trifluoromethyl)phenol], for which the IC50 was not above 100 nM.

As for `Oc1c(F)cc2nnn(-c3ccc(N4CCC(Cc5ccccc5)CC4)cc3)c2c1F` [Compound 1.08, 1-(4-(4-Benzylpiperidin-1-yl)phenyl)-5,7-difluoro-1H-benzo[d][1,2,3]triazol-6-ol], the IC50 was not above 100 nM.

With `Oc1c(F)cc2nnn(-c3ccc(N4CC[C@@H](Cc5ccccc5)C4)cc3)c2c1F` [Compound 1.06, (R)-1-(4-(3-Benzylpyrrolidin-1-yl)phenyl)-5,7-difluoro-1H-benzo[d][1,2,3]triazol-6-ol], the IC50 was not above 100 nM.

For the origin of these results see patent US20240368127A1, “HSD17B13 INHIBITORS AND USES THEREOF” (FL2022-001, Inc., priority 2021, published 2024).
